Data reported in the supplement of paper PMC11061612.

How the values were obtained:
[1] = test system: CaR-1 (Colorectal Carcinoma); assay: combination Emax (second highest fraction inhibited in the dose matrix, 72 h); higher = more inhibition; extreme values may be limits of the assay
Method in brief: (§1)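 Bliss excess equals the observed combination effect minus the expected value EA + EB − EA·EB, where EA and EB are the effects of each agent alone. Combination Emax is the second-highest inhibition within the matrix. Inhibition was scaled from CellTiter-Glo 2.0 luminescence, with 0 set by vehicle wells and 1 by blank wells, after 72 hours of two-drug dosing of cells plated in 1536-well plates.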

[2] = test system: HOS (Osteosarcoma); assay: as above
Method in brief: as §1

[3] = test system: HT-1376 (Bladder Carcinoma); assay: as above
Method in brief: as §1

[4] = test system: KYSE-520 (Esophageal Squamous Cell Carcinoma); assay: as above
Method in brief: as §1

[5] = test system: NCI-H82 (Small Cell Lung Carcinoma); assay: as above
Method in brief: as §1

[6] = test system: SK-ES-1 (Ewing's Sarcoma); assay: as above
Method in brief: as §1

[7] = test system: LB831-BLC (Bladder Carcinoma); assay: Bliss excess, mean over the matrix (fraction); higher = more synergy
Method in brief: as §1

[8] = test system: RO82-W-1 (Thyroid Gland Carcinoma); assay: as above
Method in brief: as §1

[9] = test system: NB10 (Neuroblastoma); assay: as above
Method in brief: as §1

[10] = test system: DEL (T-Cell Non-Hodgkin's Lymphoma); assay: as above
Method in brief: as §1

[11] = test system: NOS-1 (Osteosarcoma); assay: as above
Method in brief: as §1

[12] = test system: Hs-578-T (Breast Carcinoma); assay: as above
Method in brief: as §1

[13] = test system: LU-135 (Small Cell Lung Carcinoma); assay: as above
Method in brief: as §1

[14] = test system: T98G (Glioblastoma); assay: as above
Method in brief: as §1

[15] = test system: ME-1 (Acute Myeloid Leukemia); assay: as above
Method in brief: as §1

[16] = test system: KURAMOCHI (Ovarian Carcinoma); assay: as above
Method in brief: as §1

[17] = test system: KELLY (Neuroblastoma); assay: as above
Method in brief: as §1

[18] = test system: DoTc2-4510 (Cervical Carcinoma); assay: as above
Method in brief: as §1

[19] = test system: OVCA420 (Ovarian Carcinoma); assay: as above
Method in brief: as §1

| Structure (SMILES) | combination Emax [1] | combination Emax [2] | combination Emax [3] | combination Emax [4] | combination Emax [5] | combination Emax [6] | Bliss excess [7] | Bliss excess [8] | Bliss excess [9] | Bliss excess [10] | Bliss excess [11] | Bliss excess [12] | Bliss excess [13] | Bliss excess [14] | Bliss excess [15] | Bliss excess [16] | Bliss excess [17] | Bliss excess [18] | Bliss excess [19] |
| --- | --- | --- | --- | --- | --- | --- | --- | --- | --- | --- | --- | --- | --- | --- | --- | --- | --- | --- | --- |
| CN(C)CCCOc1ccc(-c2ccc3ncc4c(c3c2)n(C2CCOCC2)c(=O)n4C)cn1 [AZD0156] + C=CCn1c(=O)c2cnc(Nc3ccc(N4CCN(C)CC4)cc3)nc2n1-c1cccc(C(C)(C)O)n1 [AZD1775] (first compound max 1 µM, partner max 1 µM) | 0.128 | 0.24 | 0.294 | 0.32 | 0.901 | 0.903 | -0.104 | -0.119 | -0.0093 | -0.0036 | -0.0113 | -0.0457 | 0.0024 | -0.0598 | -0.0276 | -0.031 | -0.0002 | -0.0204 | -0.0225 |
| CN(C)CCCOc1ccc(-c2ccc3ncc4c(c3c2)n(C2CCOCC2)c(=O)n4C)cn1 [AZD0156] + CCN(CCO)CCCOc1ccc2c(Nc3cc(CC(=O)Nc4cccc(F)c4)[nH]n3)ncnc2c1 [AZD2811] (first compound max 1 µM, 7x7, partner max 1 µM) | 0.145 | 0.0916 | 0.0989 | 0.224 | 0.45 | 0.952 | -0.0356 | -0.0556 | -0.0464 | 0.117 | -0.0114 | -0.0708 | -0.0008 | -0.0655 | -0.0275 | -0.0357 | 0.0099 | -0.0111 | -0.0308 |
| CN(C)CCCOc1ccc(-c2ccc3ncc4c(c3c2)n(C2CCOCC2)c(=O)n4C)cn1 [AZD0156] + C[C@@H]1COCCN1C2=NC(=NC(=C2)C3(CC3)[S@](=N)(=O)C)C4=C5C=CNC5=NC=C4 [AZD6738] (first compound max 1 µM, 7x7, partner max 10 µM) | 0.435 | 0.706 | 0.655 | 0.603 | 0.948 | 0.855 | -0.0333 | -0.0649 | -0.038 | 0.0293 | -0.0241 | -0.0157 | -0.032 | -0.0297 | -0.107 | -0.0119 | 0.0044 | 0.0037 | 0.0052 |
| C=CCn1c(=O)c2cnc(Nc3ccc(N4CCN(C)CC4)cc3)nc2n1-c1cccc(C(C)(C)O)n1 [AZD1775] + C[C@@H]1COCCN1C2=NC(=NC(=C2)C3(CC3)[S@](=N)(=O)C)C4=C5C=CNC5=NC=C4 [AZD6738] (first compound max 1 µM, partner max 10 µM) | 0.525 | 0.911 | 0.67 | 0.661 | 0.979 | 0.926 | 0.0042 | -0.0916 | 0.0822 | 0.0252 | 0.0735 | -0.0127 | -0.0044 | -0.0178 | -0.0241 | -0.0355 | -0.0161 | 0.0479 | 0.0441 |
| C=CCn1c(=O)c2cnc(Nc3ccc(N4CCN(C)CC4)cc3)nc2n1-c1cccc(C(C)(C)O)n1 [AZD1775] + O=C(c1cc(Cc2n[nH]c(=O)c3ccccc23)ccc1F)N1CCN(C(=O)C2CC2)CC1 [Olaparib] (first compound max 1 µM, partner max 10 µM) | 0.257 | 0.417 | 0.425 | 0.399 | 0.851 | 0.954 | -0.01 | -0.0724 | -0.0088 | 0.0023 | 0.0285 | -0.0965 | -0.0249 | -0.113 | -0.0873 | -0.0358 | 0.0038 | -0.0634 | 0.0916 |
| CCN(CCO)CCCOc1ccc2c(Nc3cc(CC(=O)Nc4cccc(F)c4)[nH]n3)ncnc2c1 [AZD2811] + C=CCn1c(=O)c2cnc(Nc3ccc(N4CCN(C)CC4)cc3)nc2n1-c1cccc(C(C)(C)O)n1 [AZD1775] (first compound max 1 µM, partner max 1 µM) | 0.223 | 0.298 | 0.333 | 0.306 | 0.901 | 0.971 | 0.005 | -0.063 | -0.0399 | 0.0636 | 0.0045 | -0.0212 | -0.0346 | -0.0167 | -0.0812 | -0.0602 | 0.0569 | -0.0323 | -0.0047 |
| CCN(CCO)CCCOc1ccc2c(Nc3cc(CC(=O)Nc4cccc(F)c4)[nH]n3)ncnc2c1 [AZD2811] + C[C@@H]1COCCN1C2=NC(=NC(=C2)C3(CC3)[S@](=N)(=O)C)C4=C5C=CNC5=NC=C4 [AZD6738] (first compound max 1 µM, 7x7, partner max 10 µM) | 0.469 | 0.652 | 0.54 | 0.558 | 0.922 | 0.968 | -0.0744 | -0.0543 | -0.056 | 0.0156 | 0.0036 | -0.0811 | -0.0552 | -0.0645 | -0.0813 | -0.0649 | -0.042 | -0.0481 | -0.0777 |
| CCN(CCO)CCCOc1ccc2c(Nc3cc(CC(=O)Nc4cccc(F)c4)[nH]n3)ncnc2c1 [AZD2811] + O=C(c1cc(Cc2n[nH]c(=O)c3ccccc23)ccc1F)N1CCN(C(=O)C2CC2)CC1 [Olaparib] (first compound max 1 µM, 7x7, partner max 10 µM) | 0.19 | 0.0874 | 0.218 | 0.21 | 0.615 | 0.954 | 0.0083 | -0.0564 | -0.0445 | 0.0328 | 0.0085 | -0.0192 | -0.0632 | 0.0112 | 0.0119 | -0.0317 | -0.0359 | 0.0035 | 0.0008 |
| C[C@@H]1COCCN1c1cc(C2([S@](C)(=N)=O)CC2)nc(-c2ccnc3[nH]ccc23)n1 [AZD6738] + O=C(c1cc(Cc2n[nH]c(=O)c3ccccc23)ccc1F)N1CCN(C(=O)C2CC2)CC1 [Olaparib] (first compound max 10 µM, 7x7, partner max 10 µM) | 0.441 | 0.685 | 0.456 | – | 0.921 | 0.933 | 0.0336 | -0.098 | 0.0017 | 0.0399 | 0.0554 | -0.0002 | 0.0331 | -0.0192 | -0.0056 | -0.0208 | 0.0227 | 0.0652 | 0.0117 |
| Cc1cc2ncnn2cc1Nc1ncc2c(n1)n(C1CCOCC1)c(=O)n2C [AZD7648] + C=CCn1c(=O)c2cnc(Nc3ccc(N4CCN(C)CC4)cc3)nc2n1-c1cccc(C(C)(C)O)n1 [AZD1775] (first compound max 10 µM, partner max 1 µM) | 0.551 | 0.369 | 0.408 | 0.4 | 0.853 | 0.946 | -0.0611 | 0.131 | -0.0812 | 0.023 | -0.0145 | -0.121 | -0.0169 | 0.0062 | 0.0321 | -0.0501 | 0.015 | -0.0004 | -0.0186 |
| Cc1cc2ncnn2cc1Nc1ncc2c(n1)n(C1CCOCC1)c(=O)n2C [AZD7648] + CCN(CCO)CCCOc1ccc2c(Nc3cc(CC(=O)Nc4cccc(F)c4)[nH]n3)ncnc2c1 [AZD2811] (first compound max 10 µM, 7x7, partner max 1 µM) | 0.472 | 0.273 | 0.235 | 0.337 | 0.595 | 0.964 | -0.0477 | -0.115 | 0.0524 | 0.0547 | -0.0036 | -0.0561 | -0.0223 | 0.0116 | 0.0036 | 0.0084 | 0.0518 | -0.0115 | -0.0057 |
| Cc1cc2ncnn2cc1Nc1ncc2c(n1)n(C1CCOCC1)c(=O)n2C [AZD7648] + CN(C)CCCOc1ccc(-c2ccc3ncc4c(c3c2)n(C2CCOCC2)c(=O)n4C)cn1 [AZD0156] (first compound max 10 µM, 7x7, partner max 1 µM) | 0.266 | 0.273 | 0.2 | 0.305 | 0.293 | 0.503 | -0.0154 | -0.129 | -0.0024 | 0.0956 | 0.0258 | -0.088 | -0.0088 | -0.0317 | -0.0326 | -0.064 | 0.0637 | 0.0054 | 0.019 |
| Cc1cc2ncnn2cc1Nc1ncc2c(n1)n(C1CCOCC1)c(=O)n2C [AZD7648] + C[C@@H]1COCCN1C2=NC(=NC(=C2)C3(CC3)[S@](=N)(=O)C)C4=C5C=CNC5=NC=C4 [AZD6738] (first compound max 10 µM, 7x7, partner max 10 µM) | 0.649 | 0.691 | 0.546 | 0.538 | 0.899 | 0.816 | 0.0485 | 0.0654 | -0.0306 | 0.0052 | 0.0761 | -0.0744 | 0.0123 | 0.0339 | -0.0321 | -0.0229 | 0.0663 | 0.0178 | 0.0074 |
| Cc1cc2ncnn2cc1Nc1ncc2c(n1)n(C1CCOCC1)c(=O)n2C [AZD7648] + O=C(c1cc(Cc2n[nH]c(=O)c3ccccc23)ccc1F)N1CCN(C(=O)C2CC2)CC1 [Olaparib] (first compound max 10 µM, 7x7, partner max 10 µM) | 0.111 | 0.195 | 0.0682 | 0.234 | 0.333 | 0.923 | 0.0067 | -0.0639 | -0.0102 | 0.0174 | -0.0278 | -0.0325 | 0.0148 | -0.0965 | -0.004 | -0.0418 | -0.0241 | -0.0428 | -0.035 |
| CCc1c2c(nc3ccc(O)cc13)-c1cc3c(c(=O)n1C2)COC(=O)[C@]3(O)CC [SN-38] + O=C(c1cc(Cc2n[nH]c(=O)c3ccccc23)ccc1F)N1CCN(C(=O)C2CC2)CC1 [Olaparib] (first compound max 0.3 µM, 7x7, partner max 10 µM) | 0.912 | 0.96 | 0.0829 | – | 0.787 | 1 | 0.0617 | -0.0448 | -0.0154 | 0.0923 | -0.0251 | 0.0807 | 0.0545 | 0.107 | 0.0041 | -0.0232 | 0.0404 | 0.0174 | – |
